16 compounds from patent publication US12286418B2, “Compounds and methods for treating or preventing bacterial infections” (priority 2019, dated 2025) can be followed below.

The target in one assay is OXA-48 (Klebsiella pneumoniae, UniProt Q6XEC0). Nature of the assay: OXA-48 inhibition assay using nitrocefin as reporter. The note with it: for potency/activity against OXA-48 in words: purified OXA-48, compared with CDD-97 where a derivative. It counts as biochemical. More on the design: His-tag (N, cleaved yes); made in house; host or cells: E. coli BL21(DE3), pET28a. Here is the method:
Nitrocefin, a chromogenic β-lactam substrate, was used as a reporter in all inhibition assays with the various OXA enzymes and various compounds. Nitrocefin is not stable in aqueous solution long-term. For these assays, nitrocefin stocks were prepared in DMSO, stored at −20° C. and used within 2 weeks of dissolving. To avoid freeze-thawing, fresh stocks were always used. The Km of nitrocefin was determined prior to inhibition assays by performing steady state kinetics. Assays were performed using a DU800 spectrophotometer at room temperature in 50 mM HEPES pH 7.5, 15 mM NaHCO3, and 0.02% tween 20 buffer. Hydrolyzed nitrocefin was detected at 482 nm. For a single experiment, a series of at least 5 nitrocefin concentrations were tested against the given enzyme in duplicate and the initial velocities were measured and fit to the Michaelis-Menten equation. Experiments were repeated twice, and error reported is the standard error of the mean.
Compounds were tested for inhibition of a given OXA enzyme from hydrolyzing nitrocefin using a Tecan plate reader. […] A control with no compound was included in each run. For each compound concentration, the velocity of nitrocefin hydrolysis was determined at 482 nm and fit to the Morrison equation. […] The average Ki of separate experiments, each of which consisted of duplicate runs, is reported and error was quantified as the standard deviation.
The activity of these derivatives was assessed using inhibition assays with purified OXA-48. Compounds were tested for the ability to inhibit OXA-48 from hydrolyzing nitrocefin, a chromogenic β-lactam substrate routinely used in β-lactamase inhibition assays. Nitrocefin contains a conjugated ring system that is readily hydrolyzed and produces a visible color shift from yellow to red upon hydrolysis (O'Callaghan, et al., 1972, Antimicrob. Agents Chemother. 1:283-288). The rate of nitrocefin hydrolysis in the presence of a constant amount of OXA-48 and increasing concentrations of a given compound of interest was monitored at 482 nm. These rates were plotted against compound concentration to determine the inhibition constant (Ki) against OXA-48. […] SPR was performed using 6×-His-OXA-48 enzyme that was amine-coupled on a Ni-NTA Chip. Meropenem, which covalently binds and inhibits OXA-48, was used as a positive control.

A further assay has as its system E. coli MG1655OXA-48. The experiment in a line: Bacterial susceptibility (MIC, broth microdilution) of E. coli expressing OXA-48. The note with it: for MIC: Escherichia coli. The class given is cell-based. Here is the method: Bacterial susceptibility was specifically tested using minimum inhibitory concentration assays. Susceptibility assays were performed with E. coli strains using broth in a microplate set up. Two-fold dilutions of antibiotic and/or inhibitor were used. For susceptibility tests, bacterial strains were transformed with plasmids containing OXA-48 with its endogenous signal sequence for periplasmic migration (cloned into pTP123 vector) (Majiduddin & Palzkill, 2003, Antimicrob. Agents Chemother. 47:1062-1067). pTP123 was cut with XbaI and SacI and the linearized fragment was assembled using Gibson assembly (New England Biolabs, Ipswich, MA) its signal sequence cloned in by using Gibson assembly. Bacteria were grown in Mueller-Hinton broth with 12.5 μg/mL chloramphenicol (plasmid marker) overnight. An overnight culture was diluted 1:10^4 into the final well solutions (100 uL total) and incubated for 16-18 hours. After incubation, microplates were read using a Tecan plate reader at absorbance 600. Growth was objectively defined as yielding an absorbance ≥2 times the absorbance of the negative control (media and no culture). Experiments were repeated with new bacterial inoculums each time.
Effective β-lactamase inhibitors synergize with β-lactam antibiotics and ultimately lower the minimum inhibitory concentration (MIC) of antibiotic needed to kill the bacteria. MIC studies were performed with ampicillin (AMP), a β-lactam antibiotic readily hydrolyzed by OXA-48, against E. coli strain MG1655 expressing OXA-48 (MG1655OXA-48). The OXA-48 plasmid construct contained the endogenous signal sequence of OXA-48 for secretion to the periplasm, which was expressed under a trc-promoter, allowing leaky expression in the absence of IPTG inducer. All MICs were performed by broth microdilution with 2-fold dilutions of antibiotic and/or inhibitor (FIG. 6A). The ampicillin (AMP) and imipenem (IMP) MICs were separately determined for a range of CDD-97 and avibactam concentrations. […] In the absence of bacteria, the media (Mueller Hinton) gives an absorbance reading of 0.04 so absorbance readings greater than or equal to two-fold the control were considered bacterial growth. […] CDD-97 was tested for its synergistic ability by determining AMP MICs with a range of CDD-97 concentrations (up to 256 μg/ml).
Impermeability of the outer membrane to small molecules is a major challenge for the development of therapeutics for Gram-negative bacterial infections. β-lactamases, including OXA-48, reside in the periplasmic space and so inhibitors must traverse the outer membrane to be effective. To determine whether low permeability caused the poor in vivo activity of CDD-97, an accumulation assay (Richter, et al., 2017, Nature 545:299-304) was performed to quantify the amount of CDD-97 present in E. coli cells after incubation. In the assay, tetracycline was used as a positive control while fusidic acid and clindamycin were used as negative controls (Richter, et al., 2017, Nature 545:299-304). Controls and CDD-97 were separately incubated with wildtype E. coli (MG1655) cells and then these cells were centrifuged through silicone oil to separate free, unaccumulated compound from the cell pellet. Cell lysates were collected by freeze-thawing and analyzed by mass spectrometry to quantify the amount of accumulated compound. Compared to tetracycline, CDD-97 was present in cells at 20-fold lower levels (FIG. 6B). […] The finding that CDD-97 accumulates inefficiently across the outer membrane was also examined by adding sub-lethal concentrations of colistin to the ampicillin/CDD-97 MIC assays. Colistin is known to disrupt the outer membrane and enhance permeability in E. coli. If the outer membrane is a barrier for CDD-97, it was predicted that the addition of sub-lethal concentrations of colistin would enhance the activity of CDD-97 against E. coli. […]

[1] abbreviates: purified OXA-48, nitrocefin hydrolysis, Morrison fit.

Several values for one entry are separate records, joined by “and”; a condition that tells them apart may be missing. Identical values can stand only once. Entries after “also recorded” stand apart in the source; their conditions may differ. Like-named read-outs stand apart in the source and are kept apart here.

Sequence of OXA-48 (Q6XEC0 23-265, looked up): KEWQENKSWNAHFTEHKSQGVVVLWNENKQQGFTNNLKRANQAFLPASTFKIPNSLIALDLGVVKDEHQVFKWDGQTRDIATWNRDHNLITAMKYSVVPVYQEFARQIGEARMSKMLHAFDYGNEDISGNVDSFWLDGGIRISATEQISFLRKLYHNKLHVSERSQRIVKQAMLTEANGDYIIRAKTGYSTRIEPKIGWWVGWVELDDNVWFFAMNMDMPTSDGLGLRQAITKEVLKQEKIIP

For `CS(=O)(=O)c1ccccc1N1CCN(c2ncnc(N3CCC(C(=O)O)CC3)n2)CC1` [CDD-181, 1-(4-(4-(2-(methylsulfonyl)phenyl)piperazin-1-yl)-1,3,5-triazin-2-yl)piperidine-4-carboxylic acid], affinity on OXA-48 (setting [1]) was put at a Ki of 3.23 ± 0.39 µM.
Regarding `NC(=O)[C@@H]1CC[C@@H]2CN1C(=O)N2OS(=O)(=O)O` [avibactam, reference compound], the “synergy with β-lactam antibiotics (effect on AMP/IMP MIC) in words” value in the assay on E. coli MG1655OXA-48 (E. coli expressing OXA-48, CDD-97 up to 256 μg/mL, avibactam up to 4 μg/mL) is “dose-dependent decrease in both the AMP and IMP MICs”. The MIC was 256 µg/mL in the assay with E. coli MG1655OXA-48 (MG1655OXA48, read-out: AMP MIC, with 0.125 μg/mL avibactam); 32 µg/mL with E. coli MG1655OXA-48 (MG1655OXA48, read-out: AMP MIC, with 1 μg/mL avibactam); 16 µg/mL in the assay on E. coli MG1655OXA-48 (MG1655OXA48, read-out: AMP MIC, with 2 μg/mL avibactam); 4 µg/mL with E. coli MG1655OXA-48 (MG1655OXA48, read-out: AMP MIC, with 4 μg/mL avibactam); 128 µg/mL in the assay on E. coli MG1655OXA-48 (MG1655OXA48, read-out: AMP MIC, with .25 μg/mL avibactam); 64 µg/mL with E. coli MG1655OXA-48 (MG1655OXA48, read-out: AMP MIC, with .5 μg/mL avibactam). Further, the MIC in the assay on E. coli MG1655OXA-48 (MG1655OXA48, read-out: IMP MIC, with 0.125 μg/mL avibactam) was determined as 0.312 µg/mL; with E. coli MG1655OXA-48 (MG1655OXA48, read-out: IMP MIC, with 1 μg/mL avibactam), 0.156 µg/mL; in the assay with E. coli MG1655OXA-48 (MG1655OXA48, read-out: IMP MIC, with 2 μg/mL avibactam) it was 0.156 µg/mL; in the assay on E. coli MG1655OXA-48 (MG1655OXA48, read-out: IMP MIC, with 4 μg/mL avibactam), 0.0781 µg/mL; in the assay with E. coli MG1655OXA-48 (MG1655OXA48, read-out: IMP MIC, with .25 μg/mL avibactam) it was 0.312 µg/mL; with E. coli MG1655OXA-48 (MG1655OXA48, read-out: IMP MIC, with .5 μg/mL avibactam) it was 0.156 µg/mL.
For the compound `CCOc1ccccc1OCCOc1ncnc(N2CCC(C(=O)O)CC2)n1`, the Ki on OXA-48 (setting [1]) came out at 18.8 ± 2.5 µM.
As to `CCOc1ccccc1N1CCN(c2ncnc(N3CC(F)(C(=O)NC)C3)n2)CC1` [CDD-147, 1-(4-(4-(2-ethoxyphenyl)piperazin-1-yl)-1,3,5-triazin-2-yl)-3-fluoro-N-methylazetidine-3-carboxamide], the “potency/activity against OXA-48 in words” value on OXA-48 is given as “potency was low”. The compound further displayed a Ki at OXA-48 (setting [1]) above 50 µM.
“1-(4-(2-(2-ethoxyphenoxy)ethoxy)-1,3,5-triazin-2-yl)piperidine-4-carboxylic acid [CDD-900]”: at OXA-48 (setting [1]), the Ki was found to be 38.1 µM. This counts as double-digit micromolar.
Same read-out and setting: next, `CCOc1ccccc1CCCNc1ncnc(N2CCC(C(=O)O)CC2)n1` [CDD-899]: 15 µM; `CCOc1ccccc1N1CCN(c2nc(N3CCC(C(=O)O)CC3)nc(N3CC(F)(C(=O)NC)C3)n2)CC1` [CDD-163, 1-(4-(4-(2-ethoxyphenyl)piperazin-1 yl)-6-(3-fluoro-3-(methylcarbamoyl)azetidin-1-yl)-1,3,5-triazin-2-yl)piperidine-4-carboxylic acid]: above 50 µM.
Take `CCOc1ccccc1N1CCN(c2ncnc(N3CCC(C(N)=O)CC3)n2)CC1` [CDD-553, 1-(4-(4-(2-ethoxyphenyl)piperazin-1-yl)-1,3,5-triazin-2-yl)piperidine-4-carboxamide]: at OXA-48, the “potency/activity against OXA-48 in words” value was “significant loss of inhibitory activity”. The “Ki for OXA-48 inhibition” value at OXA-48 (setting [1]) was “No binding”.
With `C[C@@H](O)[C@H]1C(=O)N2C(C(=O)O)=C(SCCN=CN)C[C@H]12` [IMP, imipenem, reference compound], in the assay on E. coli MG1655OXA-48 (MG1655OXA48, read-out: IMP MIC, imipenem alone, no inhibitor), the MIC turned out to be 0.625 µg/mL.
Consider `CCOc1ccccc1N1CCN(c2nc(NCCCCN)nc(N3CCC(C(=O)O)CC3)n2)CC1` [CDD-863], for which the “potency/activity against OXA-48 in words” value on OXA-48 is given as “does not have a large effect on potency”. The Ki on OXA-48 (setting [1]) is 0.45 µM.
As to `CCOc1ccccc1N1CCN(c2nc(N)nc(N3CCC(C(=O)O)CC3)n2)CC1` [CDD-616, 1-(4-amino-6-(4-(2-ethoxyphenyl)piperazin-1-yl)-1,3,5-triazin-2-yl)piperidine-4-carboxylic acid], the “potency/activity against OXA-48 in words” value at OXA-48 is “does not have a large effect on potency; also recorded: retain potency; also recorded: did not affect potency”. On OXA-48 (setting [1]), this compound displayed a Ki of 0.52 ± 0.01 µM.
Regarding `O=C(O)C1CCN(c2ncnc(N3CCN(c4ccccc4OCC(F)(F)F)CC3)n2)CC1` [CDD-178, 1-(4-(4-(2-(2,2,2-trifluoroethoxy)phenyl)piperazin-1-yl)-1,3,5-triazin-2-yl)piperidine-4-carboxylic acid], the Ki on OXA-48 (setting [1]) is 1 µM and 0.83 µM.
In the case of `CCOc1ccccc1N1CCN(c2ncnc(N3CC(F)(C(=O)O)C3)n2)CC1` [CDD-96, 1-(4-(4-(2-ethoxyphenyl)piperazin-1-yl)-1,3,5-triazin-2-yl)-3-fluoroazetidine-3-carboxylic acid], the “potency/activity against OXA-48 in words” value at OXA-48 was “potency was low”.
`CCOc1ccccc1N1CCN(c2ncnc(N3CCC(S(=O)(=O)O)CC3)n2)CC1` [CDD-862, 1-(4-(4-(2-ethoxyphenyl)piperazin-1-yl)-1,3,5-triazin-2-yl)piperidine-4-sulfonic acid]: the Ki at OXA-48 (purified OXA-48, nitrocefin) is 0.26 µM; at OXA-48 (setting [1]) it was 0.27 ± 0.02 µM.
`CC1(C)S[C@@H]2[C@H](NC(=O)[C@H](N)c3ccccc3)C(=O)N2[C@H]1C(=O)O` [AMP, ampicillin, reference compound]: the MIC in the assay on E. coli MG1655OXA-48 (MG1655OXA48, read-out: AMP MIC, ampicillin alone, no inhibitor) worked out at 512 µg/mL; in the assay with E. coli MG1655OXA-48 (MG1655OXA48, read-out: AMP MICs, (−) CDD-97, colistin 0 μg/mL) it was 1020 µg/mL; in the assay with E. coli MG1655OXA-48 (MG1655OXA48, read-out: AMP MICs, (−) CDD-97, colistin 0.0625 μg/mL), 1020 µg/mL; with E. coli MG1655OXA-48 (MG1655OXA48, read-out: AMP MICs, (−) CDD-97, colistin 0.125 μg/mL) it was 1020 µg/mL; with E. coli MG1655OXA-48 (MG1655OXA48, read-out: AMP MICs, (−) CDD-97, colistin 0.25 μg/mL) it was 512 µg/mL; in the assay on E. coli MG1655OXA-48 (MG1655OXA48, read-out: AMP MICs, (−) CDD-97, colistin 0.5 μg/mL) it was 256 µg/mL. In addition, the MIC in the assay on E. coli MG1655OXA-48 (MG1655OXA48, read-out: AMP MICs, (−) CDD-97, colistin 1 μg/mL) is 256 µg/mL.
Turning to colistin [reference compound], in the assay on E. coli MG1655OXA-48 (colistin, with or without AMP), the “colistin concentration at which bacteria were completely killed off regardless of the presence of AMP” value was “At ≥2 μg/mL colistin, bacteria were completely”.
